Results: publication PMC5382548 (Scientific Reports, 2015)

Assays:
[1] = system: KRAS21R (DNA, G4) AGGGCGGTGTGGGAAGAGGGA; test: spectrofluorimetric titration, one-site saturation fit; conditions: 60 mM K+; K-cacodylate pH 7.4, 25 °C; 1 μM compound; SD ≤ 0.2 × 10^6
[2] = system: SW620 metastatic colon cancer cells; test: Guava ViaCount assay, SW620; assay type: cell-based, human; conditions: IC65 concentration, 72 h
Source text: The ability of IQcs to induce cell death in colon cancer cell lines with different genotypes (HCT116 and SW620) and in the non-malignant cell line HEK293T was studied by a Guava Via Count assay and compared with the behaviour of 5-FU and TMPyP4 at equitoxic concentrations (IC50 and IC65). Results in Figure 7 show dose-dependent induction of cell death, mainly by apoptosis, by all tested compounds in the HCT116 colon cancer cell line. […] In SW620 metastatic colon cancer cells, cell death induction was highly dependent on the number and position of side chains in IQc compounds. […]
Figure 7 Evaluation of the effect of IQc on cell viability using the ViaCount assay. […] Results are expressed as the mean percentage (%) of viable (white), mid-apoptotic (grey) and dead (black) cells ± SEM, of at least three different experiments, for (a) IC50, and for (b) IC65 compound concentrations. a, p < 0.05; b, p < 0.01 from DMSO (vehicle control); c, p < 0.05; and d, p < 0.01 from 5-FU. […]
Taqman Real-time PCR reactions were performed using 1.5 µg of total RNA, using High Capacity RNA to cDNA kit, according to the manufacturer`s instruction. […] The comparative threshold cycle method was used to calculate the amplification factor, where the threshold cycle (Ct) is defined as the cycle number at which the fluorescence passes the fixed threshold intensity level. […]

[3] = system: KRAS21R G4; test: Binding stoichiometry, Job plot (continuous variation); parameters: species or system human; conditions: [3e] + [G4] = 4 μM, 25°C
Method: In order to determine the number of ligand-binding sites, continuous variation analysis (Job plot)[27] of 3e with KRAS21R was performed. Plotting of fluorescence as a function of the mole fraction of 3e (χ) gave linear dependences at high and low molar fractions (Figure S9b).
The binding stoichiometry of indolo[3,2-c]quinoline derivative 3e with KRAS21R G4 was obtained by spectrophotofluorimetry at 25°C using the Job method of continuous variation. A previously annealed G4 stock solution at 25 μM (heating to 95°C for 10 min, followed by slow cooling to RT) of the non-labelled oligonucleotide sequences KRAS21R in K-cacodylate buffer pH 7.4 (containing 60 mM K^+) was used. Test compound was prepared at 1 mM concentration in HPLC-grade water (10% DMSO) stock solution. The rest of the dilutions were performed using K-cacodylate buffer. Total concentration of ligand and G4 in the solution was kept constant ([3e] + [G4] = 4 μM) as previously described.
Figure S9 | a) CD titration spectra of the KRAS21R and induced by titration with 3e in K-cacodylate buffer pH 7.4, containing 60 mM K+ at 25 °C. Solid black line – Pure G4 DNA at […]
sequentially from the top around 260 nm; b) Job Plot of 3e in complex with KRAS21R G4 in K-cacodylate buffer pH 7.4, containing 60 mM K+, at 25 °C. The sum of the concentrations of 3e and G4 was kept constant at 4 µM.
Figure S10. […]

Cn1cc2c3ccccc3nc-2c2cc(Br)ccc21 [2a, 2-bromo-5-methyl-indolo[3,2-c]quinoline]
Ka [1]: 1.7e+06 M⁻¹

C[n+]1ccc(-c2c3nc(c(-c4cc[n+](C)cc4)c4ccc([nH]4)c(-c4cc[n+](C)cc4)c4ccc([nH]4)c(-c4cc[n+](C)cc4)c4nc2C=C4)C=C3)cc1 [TMPyP4, reference compound]
Cell death induced, SW620 [2]: > 20%

CCN(CC)CCCNc1ccc2c(c1)[nH]c1c2c[n+](C)c2ccc(NCCCN(CC)CC)cc12.[Cl-] [3e]
Job plot molar fraction at intersection [3]: 0.61
